# Experimental data from patent US8598154B2 (Corcept Therapeutics, Inc., priority 2010, dated 2013).
# Columns and labels:
# [1] = target: T1, glucocorticoid receptors (GR) in SW1353/MMTV-5 cells (Homo sapiens, UniProt P04150); assay: GR functional assay using SW1353/MMTV-5 cells (MMTV-luciferase reporter); type: cell-based
# T1 construct: contains endogenous glucocorticoid receptors; endogenous in cells; host or cells: SW1353/MMTV-5 (human chondrosarcoma, stably transfected with the pMAMneo-Luc reporter only)
# T1 sequence (P04150 1-777): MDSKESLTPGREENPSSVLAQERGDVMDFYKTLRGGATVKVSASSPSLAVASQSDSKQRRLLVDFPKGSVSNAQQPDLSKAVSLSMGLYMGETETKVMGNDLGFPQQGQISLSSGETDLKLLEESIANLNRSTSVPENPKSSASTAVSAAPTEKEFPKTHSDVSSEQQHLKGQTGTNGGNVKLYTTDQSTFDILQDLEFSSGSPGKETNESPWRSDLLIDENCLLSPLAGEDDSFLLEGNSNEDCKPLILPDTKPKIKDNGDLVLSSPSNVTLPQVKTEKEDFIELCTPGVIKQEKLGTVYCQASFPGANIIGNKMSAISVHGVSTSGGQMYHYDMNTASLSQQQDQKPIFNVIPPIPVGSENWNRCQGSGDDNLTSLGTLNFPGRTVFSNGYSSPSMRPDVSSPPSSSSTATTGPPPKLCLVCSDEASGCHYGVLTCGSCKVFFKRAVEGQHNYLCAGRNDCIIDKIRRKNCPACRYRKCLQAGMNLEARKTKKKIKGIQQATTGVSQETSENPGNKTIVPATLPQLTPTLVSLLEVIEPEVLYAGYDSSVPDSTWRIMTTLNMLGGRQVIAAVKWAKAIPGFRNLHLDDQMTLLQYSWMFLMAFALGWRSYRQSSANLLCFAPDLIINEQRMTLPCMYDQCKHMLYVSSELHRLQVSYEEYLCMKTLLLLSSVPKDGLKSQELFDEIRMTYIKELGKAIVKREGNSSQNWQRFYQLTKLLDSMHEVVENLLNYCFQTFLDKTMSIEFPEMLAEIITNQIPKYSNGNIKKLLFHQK
# Method: SW1353/MMTV-5 is an adherent human chondrosarcoma cell line that contains endogenous glucocorticoid receptors. It was transfected with a plasmid (pMAMneo-Luc) encoding firefly luciferase located behind a glucocorticoid-responsive element (GRE) derived from a viral promoter (long terminal repeat of mouse mammary tumor virus). A stable cell line SW1353/MMTV-5 was selected with geneticin, which was required to maintain this plasmid.
# SW1353/MMTV-5 cells were distributed in 96-well plates and incubated in medium (without geneticin) for 24 hrs (in the absence of CO2).
# [2] = target: T2, Human Recombinant Glucocorticoid Receptor (Homo sapiens, UniProt P04150); assay: Glucocorticoid receptor binding displacement assay with 3H-dexamethasone; details: displacement of 2.5 nM 3H-dexamethasone; Ki from IC50 by Cheng-Prusoff; read-out: GR Binding Ki
# T2 construct: This GR was a full-length steroid hormone receptor likely to be associated with heat-shock and other endogenous proteins; host or cells: baculovirus-infected insect cells
# T2 sequence (P04150 1-777): T1 sequence (P04150 1-777)
# Method: The source of the receptor was recombinant baculovirus-infected insect cells. This GR was a full-length steroid hormone receptor likely to be associated with heat-shock and other endogenous proteins.
# For the Primary Screen, test compounds were tested at 1 μM in duplicate. These compounds were diluted from 10 mM stock in 100% DMSO. After dilution to 100 μM, 5 μl were added to 245 μl assay buffer to obtained 2 μM compound and 2% DMSO.
# For the IC50 determinations, test compounds were tested at 6 concentrations in duplicate (concentration range depends on % inhibition binding that was obtained in the Primary Screen). Test compounds were diluted from 10 mM stock in 100% DMSO. The tested solutions were prepared at 2× final assay concentration in 2% DMSO/assay buffer.
# All reagents and the assay plate were kept on ice during the addition of reagents. […] After the additions, the incubation mixture was mixed and incubated for 2.5 hrs at 4° C.
# After 2.5 hrs incubation, unbound counts were removed with dextran coated charcoal (DCC) as follows: 25 μl of DCC solution (10% DCC in assay buffer) was added to all wells and mixed (total volume 225 μl). The plate was centrifuged at 4000 rpm for 10 minutes at 4° C. 75 μl of the supernatants (i.e.⅓ of total volume) was carefully pipetted into an optiplate. 200 μl of scintillation cocktail were added (Microscint-40, Packard Bioscience. B.V.). The plate was vigorously shaken for approx. 10 minutes and counted on Topcount.
# The IC50 values were converted to Ki (the inhibition constant) using the Cheng-Prusoff equation. Test results are presented in Tablel.
# Reagents: Assay buffer: 10 mM potassium phosphate buffer pH 7.6 containing 5 mM DTT, 10 mM sodium molybdate, 100 μM EDTA and 0.1% BSA.
SMILES,Ki [1],Ki [2]
"O=S(=O)(c1ccc(N2CCOCC2)nc1)N1CCC2=Cc3c(cnn3-c3ccc(F)cc3)C[C@]2(COC(F)F)C1 [Example 15, (R)-4a-Difluoromethoxymethyl-1-(4-fluorophenyl)-6-(6-morpholin-4-yl-pyridine-3-sulfonyl)-4,4a,5,6,7,8-hexahydro-1H-1,2,6-triazacyclopenta[b]naphthalene]",10 to 50 nM,> 1 nM
"Cc1cc(COC(=O)[C@]23Cc4cnn(-c5ccc(F)cc5)c4C=C2CCN(S(=O)(=O)c2ccc(N4CC[C@@H](F)C4)nc2)C3)no1 [Example 60, (R)-1-(4-Fluorophenyl)-6-[6-((R)-3-fluoropyrrolidin-1-yl)-pyridine-3-sulfonyl]-1,4,5,6,7,8-hexahydro-1,2,6-triaza-cyclopenta[b]naphthalene-4a-carboxylic acid 5-methylisoxazol-3-ylmethyl ester]",10 to 50 nM,0.5 to 1 nM
"O=S(=O)(c1ccc(N2CC[C@@H](F)C2)nc1)N1CCC2=Cc3c(cnn3-c3ccc(F)cc3)C[C@]2(COCCO)C1 [Example 34, 2-{(R)-1-(4-Fluorophenyl)-6-[6-((R)-3-fluoropyrrolidin-1-yl)-pyridine-3-sulphonyl]-1,4,5,6,7,8-hexahydro-1,2,6-triaza-cyclopenta[b]naphthalene-4a-ylmethoxy}-ethanol]",> 50 nM,> 1 nM
"COC[C@]12Cc3cnn(-c4ccc(F)cc4)c3C=C1CCN(S(=O)(=O)c1cncc(N3CC[C@H](O)C3)c1)C2 [Example 39, (S)-1-{5-[(R)-1-(4-Fluorophenyl)-4a-methoxymethyl-1,4,4a,5,6,7,8-hexahydro-1,2,6-triaza-cyclopenta[b]naphthalene-6-sulfonyl]pyridine-3-yl}-pyrrolidine-3-ol]",> 50 nM,0.5 to 1 nM
"O=S(=O)(c1ccc(N2CCOCC2)nc1)N1CCC2=Cc3c(cnn3-c3ccc(F)cc3)C[C@]2(CN2CC[C@H](O)C2)C1 [Example 62, (S)-1-[(S)-1-(4-Fluorophenyl)-6-[6-morpholin-4-yl-pyridine-3-sulfonyl)-1,4,5,6,7,8-hexahydro-1,2,6-triaza-cyclopenta[b]naphthalene-4a-ylmethyl]-pyrrolidin-3-ol]",> 50 nM,> 1 nM
"COC[C@]12Cc3cnn(-c4ccc(F)cc4)c3C=C1CCN(S(=O)(=O)c1cncc(N3CCC3)c1)C2 [Example 13, (R)-6-(5-Azetidin-1-ylpyridine-3-sulfonyl)-1-(4-fluorophenyl)-4a-methoxymethyl-4,4a,5,6,7,8-hexahydro-1H-1,2,6-triazacyclopenta[b]naphthalene]",10 to 50 nM,< 0.5 nM
"O=S(=O)(c1ccc(N2CC[C@H](F)C2)nc1)N1CCC2=Cc3c(cnn3-c3ccc(F)cc3)C[C@]2(COCC2CC2)C1 [Example 27, (R)-4a-Cyclopropylmethoxymethyl-1-(4-fluorophenyl)-6-(6-((S)-3-fluoropyrrolidin-1-yl)-pyridine-3-sulfonyl)-4,4a,5,6,7,8-hexahydro-1H-1,2,6-triaza-cyclopenta[b]naphthalene]",< 10 nM,0.5 to 1 nM
"CCOC[C@]12Cc3cnn(-c4ccc(F)cc4)c3C=C1CCN(S(=O)(=O)c1ccc(N3CCC3)nc1)C2 [Example 6, (R)-6-[[6-(1-Azetidinyl)-3-pyridinyl]sulfonyl]-4a-ethoxymethyl-1-(4-fluorophenyl)-1,4,7,8-tetrahydro-1,2,6-triazacyclopenta[b]naphthalene]",10 to 50 nM,0.5 to 1 nM
"COC[C@]12Cc3cnn(-c4ccc(F)cc4)c3C=C1CCN(S(=O)(=O)c1cncc(N3CCOCC3)c1)C2 [Example 12, (R)-1-(4-Fluorophenyl)-4a-methoxymethyl-6-(5-morpholin-4-ylpyridine-3-sulfonyl)-4,4a,5,6,7,8-hexahydro-1H-1,2,6-triazacyclopenta[b]naphthalene]",> 50 nM,> 1 nM
"COC[C@]12Cc3cnn(-c4ccc(F)cc4)c3C=C1CCN(S(=O)(=O)c1ccc(N3CCCC3)nc1)C2 [Example 5, (R)-1-(4-Fluorophenyl)-4a-methoxymethyl-6-[[6-(1-pyrrolidinyl)-3-pyridinyl]sulfonyl]-1,4,7,8-tetrahydro-1,2,6-triazacyclopenta[b]naphthalene]",10 to 50 nM,0.5 to 1 nM
"CCOC[C@]12Cc3cnn(-c4ccc(F)cc4)c3C=C1CCN(S(=O)(=O)c1cccnc1)C2 [Example 2, (R)-4a-Ethoxymethyl-1-(4-fluorophenyl)-6-[[3-pyridinyl]sulfonyl]-1,4,7,8-tetrahydro-1,2,6-triazacyclopenta[b]naphthalene]",10 to 50 nM,0.5 to 1 nM
"CN(C)CCOC(=O)[C@]12Cc3cnn(-c4ccc(F)cc4)c3C=C1CCN(S(=O)(=O)c1ccc(N3CCOCC3)nc1)C2 [Example 56, (R)-1-(4-Fluorophenyl)-6-(6-morpholin-4-yl-pyridine-3-sulfonyl]-1,4,5,6,7,8-hexahydro-1,2,6-triaza-cyclopenta[b]naphthalene-4a-carboxylic acid 2-dimethylaminoethyl ester]",> 50 nM,> 1 nM
"COc1ccc(S(=O)(=O)N2CCC3=Cc4c(cnn4-c4ccc(F)cc4)C[C@]3(C(=O)OCC3CCC3)C2)cn1 [Example 59, (R)-1-(4-Fluorophenyl)-6-(6-methoxypyridine-3-sulfonyl)-1,4,5,6,7,8-hexahydro-1,2,6-triaza-cyclopenta[b]naphthalene-4a-carboxylic acid cyclobutylmethyl ester]",< 10 nM,0.5 to 1 nM
"O=S(=O)(c1ccc(N2CCOCC2)nc1)N1CCC2=Cc3c(cnn3-c3ccc(F)cc3)C[C@]2(CN2CC[C@@H](O)C2)C1 [Example 63, (R)-1-[(S)-1-(4-Fluorophenyl)-6-[6-morpholin-4-yl-pyridine-3-sulfonyl)-1,4,5,6,7,8-hexahydro-1,2,6-triaza-cyclopenta[b]naphthalene-4a-ylmethyl]-pyrrolidin-3-ol]",10 to 50 nM,> 1 nM
"COC[C@]12Cc3cnn(-c4ccc(F)cc4)c3C=C1CCN(S(=O)(=O)c1ccc(N3CCN(C)CC3)nc1)C2 [Example 19, (R)-1-(4-Fluorophenyl)-4a-methoxymethyl-6-[[6-(1-(4-methylpiperazinyl))-3-pyridinyl]sulfonyl]-1,4,7,8-tetrahydro-1,2,6-triazacyclopenta[b]naphthalene]",> 50 nM,> 1 nM
"COC[C@]12Cc3cnn(-c4ccc(F)cc4)c3C=C1CCN(S(=O)(=O)c1ccc(N3C[C@@H]4C[C@H]3CO4)nc1)C2 [Example 23, (R)-1-(4-Fluorophenyl)-4a-methoxymethyl-6-[(1S,4S)-6-(2-oxa-5-aza-bicyclo[2.2.1]hept-5-yl)pyridine-3-sulfonyl]-4,4a,5,6,7,8-hexahydro-1H-1,2,6-triaza-cyclopenta[b]naphthalene]",> 50 nM,> 1 nM
"COC[C@]12Cc3cnn(-c4ccc(F)cc4)c3C=C1CCN(S(=O)(=O)c1cncc(N3CC[C@H](F)C3)c1)C2 [Example 41, (R)-1-(4-Fluorophenyl)-6-[5-((S)-3-fluoropyrrolidin-1-yl)-pyridine-3-sulfonyl]-4a-methoxymethyl-4,4a,5,6,7,8-hexahydro-1H-1,2,6-triaza-cyclopenta[b]naphthalene]",< 10 nM,0.5 to 1 nM
